As a reminder, the IC50 is the midpoint of a concentration-inhibition curve. Read a high IC50 as weaker potency.

Two compounds from patent publication US20240300904A1, “PYRIDAZINONES FOR THE TREATMENT OR PREVENTION OF HYPERTENSION” (UNIVERSITETET I OSLO, priority 2021, published 2024) can be followed below.

In data set [1] the target is T1, human (h) natriuretic peptide receptor A (hNPR-A) (Homo sapiens, UniProt P16066).
T1 construct: expressed in transfected cells
T1 sequence (P16066 33-1061): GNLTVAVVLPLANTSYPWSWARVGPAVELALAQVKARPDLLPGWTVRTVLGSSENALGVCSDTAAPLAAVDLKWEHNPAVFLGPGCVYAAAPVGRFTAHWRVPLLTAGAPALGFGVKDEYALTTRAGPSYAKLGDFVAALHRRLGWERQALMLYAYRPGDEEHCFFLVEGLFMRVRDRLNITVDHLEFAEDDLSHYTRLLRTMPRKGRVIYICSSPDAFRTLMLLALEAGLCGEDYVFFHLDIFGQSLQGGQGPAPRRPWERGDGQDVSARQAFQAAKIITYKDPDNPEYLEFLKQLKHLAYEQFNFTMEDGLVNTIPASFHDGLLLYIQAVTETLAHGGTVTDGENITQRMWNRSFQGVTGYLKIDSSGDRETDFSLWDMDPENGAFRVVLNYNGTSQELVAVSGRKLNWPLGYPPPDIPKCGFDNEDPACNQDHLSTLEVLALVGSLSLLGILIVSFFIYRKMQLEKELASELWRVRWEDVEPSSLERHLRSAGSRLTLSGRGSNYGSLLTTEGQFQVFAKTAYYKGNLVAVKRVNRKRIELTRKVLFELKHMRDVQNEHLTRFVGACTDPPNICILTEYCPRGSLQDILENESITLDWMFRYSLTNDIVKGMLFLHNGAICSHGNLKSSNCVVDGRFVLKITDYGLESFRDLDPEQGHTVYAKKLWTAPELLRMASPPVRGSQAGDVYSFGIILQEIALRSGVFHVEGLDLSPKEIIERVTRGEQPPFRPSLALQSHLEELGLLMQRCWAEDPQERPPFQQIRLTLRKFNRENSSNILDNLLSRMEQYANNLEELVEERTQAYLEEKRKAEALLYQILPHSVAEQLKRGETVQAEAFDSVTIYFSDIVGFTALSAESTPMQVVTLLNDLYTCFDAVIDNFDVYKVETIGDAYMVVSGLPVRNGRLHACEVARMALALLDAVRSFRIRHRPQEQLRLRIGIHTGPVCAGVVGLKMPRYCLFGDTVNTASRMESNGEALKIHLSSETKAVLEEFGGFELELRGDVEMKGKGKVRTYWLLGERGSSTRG
T1 sequence (P16860 103-134 partner limits assumed): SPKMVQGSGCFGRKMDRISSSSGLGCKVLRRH
As to the kind of experiment: AlphaScreen assay for cGMP: BNP-mediated NPR-A activity (cGMP production). The data set is classed as cell-based. As to conditions: conc. response of compound + 0.1 nM BNP. Here is the method:
QBIHEK293A cells stably transfected with human (h) natriuretic peptide receptor A (hNPR-A) and hNPR-B were made as described in Bach et al., Naunyn Schmiedebergs Arch. Pharmacol. 2014; 387:5-14. Cells were grown in DMEM (Dulbecco's Modified Eagle's Medium, Gibco®, ThermoFischer Scientific) supplemented with 10% Fetal Bovine Serum (FBS), 100 U/ml penicillin, 0.1 mg/ml streptomycin, and 0.4 mg/ml G418 (geneticin) as selection antibiotic.
The AlphaScreen assay for cGMP (Perkin Elmer) was performed as described in Bach et al. (see above). NPR-A and NPR-B expressing HEK293 cells were split the day before the experiment and harvested using an EDTA solution (Versene, Invitrogen, ThermoFischer Scientific). A final concentration of 6000 cells/well was re-suspended in stimulation buffer (5 mM HEPES in HBSS at pH 7.4, 0.1% BSA) with IBMX (0.7 mM final). Compounds were dissolved in stimulation buffer and added to wells in increasing concentrations. Cells were incubated with the indicated compounds 20 minutes before addition of agonists (human BNP, human CNP or human proBNP) in various concentrations. Cells were stimulated for 20 minutes with agonist before the reactions were stopped (i.e. cells lysed) by adding the AlphaScreen Acceptor bead mix (Acceptor beads-anti-cGMP antibody and 0.5% Tween-20 in 5 mM HEPES buffer at pH 7.4). After 1 hour incubation, the Donor bead mix (Donor beads, biotinylated cGMP, 0.5% Tween-20 in 5 mM HEPES buffer at pH 7.4) was added (40 μl total volume) and incubation continued for 2 hours. The luminescence signals were analyzed quantitatively by reading of the plates on the EnVision® Multilabel Plate Reader (Perkin Elmer) using AlphaScreen emission 570 nm filter.
(Bead proximity is the source of the signal in Alpha formats.)

A further data set has as its system HeLa cells. Nature of the data set: MTT assay (cytotoxicity). The data set is classed as cell-based. The settings on record: 24 and 48 h, compared with compounds 3 and 11. The procedure: Cells were incubated for 24 and 48 h with increasing concentrations of the indicated compound. The data represent formazan formation (absorbance) as a percentage of the negative control (1% DMSO).
The MTT (3-(4,5-dimethylthiazol-2-yl)-2,5-diphenyltetrazolium bromide) tetrazolium reduction assay was used to measure cytotoxicity of the compounds in vitro. Viable cells with active metabolism convert MTT into a purple colored formazan product with an absorbance maximum near 570 nm. HeLa cells were plated in 96-well plates in culture medium (DMEM (Dulbecco's Modified Eagle's Medium, Gibco®, ThermoFischer Scientific) supplemented with 10% Fetal Bovine Serum (FBS), 100 U/ml penicillin, 0.1 mg/ml streptomycin) the day before experiments. Cells were incubated for 24 or 48 h at 37° C. with increasing concentrations of each compound (in 1% DMSO). 1% DMSO and 20 mM H2O2 in culture medium were used as negative and positive control, respectively. MTT solution at a final concentration of 0.45 mg/ml was added to the wells and cells incubated for 1 to 4 hours at 37° C. Solubilization solution (40% (vol/vol) dimethylformamide (DMF), 2% (vol/vol) glacial acetic acid and 16% (wt/vol) sodium dodecyl sulfate (SDS)) was added to each well to dissolve formazan crystals. Absorbance was measured at 570 nm.
Background: Tetrazolium dyes change colour on reduction, which living cells bring about.

The nature of data set [2]: Cytotoxicity screening (Cyprotex Discovery Ltd.). The class given is cell-based.
The target in a further data set is T2, dopamine D1-receptor (Homo sapiens, UniProt P21728).
T2 construct: purchased Discover X/Eurofins SafetyScan E/IC50 ELECT
T2 sequence (P21728 whole entry): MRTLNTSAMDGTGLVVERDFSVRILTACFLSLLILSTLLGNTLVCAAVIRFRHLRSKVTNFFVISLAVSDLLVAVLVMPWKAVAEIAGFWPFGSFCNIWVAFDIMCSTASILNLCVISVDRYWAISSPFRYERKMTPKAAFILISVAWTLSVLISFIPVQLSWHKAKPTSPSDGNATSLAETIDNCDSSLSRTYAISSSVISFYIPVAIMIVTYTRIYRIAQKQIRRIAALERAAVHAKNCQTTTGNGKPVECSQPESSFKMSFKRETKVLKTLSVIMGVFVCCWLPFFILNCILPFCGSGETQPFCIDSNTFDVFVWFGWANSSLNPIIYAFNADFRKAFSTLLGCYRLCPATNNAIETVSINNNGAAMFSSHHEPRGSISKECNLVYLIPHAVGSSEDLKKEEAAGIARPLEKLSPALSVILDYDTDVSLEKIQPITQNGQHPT
Nature of the data set: Safety pharmacology panel (SafetyScan E/IC50 ELECT). The class given is cell-based. The settings on record: minor activity; 78-target panel.

The next data set concerns the target T3, β1-adrenergic receptor (Homo sapiens, UniProt P08588).
T3 construct: purchased Discover X/Eurofins SafetyScan E/IC50 ELECT
The description is as above. The class given is cell-based. As to conditions: minor activity; 78-target panel.

For a further data set, the target named is T4, β2-adrenergic receptor (Homo sapiens, UniProt P07550).
T4 construct: purchased Discover X/Eurofins SafetyScan E/IC50 ELECT
T4 sequence (P07550 whole entry): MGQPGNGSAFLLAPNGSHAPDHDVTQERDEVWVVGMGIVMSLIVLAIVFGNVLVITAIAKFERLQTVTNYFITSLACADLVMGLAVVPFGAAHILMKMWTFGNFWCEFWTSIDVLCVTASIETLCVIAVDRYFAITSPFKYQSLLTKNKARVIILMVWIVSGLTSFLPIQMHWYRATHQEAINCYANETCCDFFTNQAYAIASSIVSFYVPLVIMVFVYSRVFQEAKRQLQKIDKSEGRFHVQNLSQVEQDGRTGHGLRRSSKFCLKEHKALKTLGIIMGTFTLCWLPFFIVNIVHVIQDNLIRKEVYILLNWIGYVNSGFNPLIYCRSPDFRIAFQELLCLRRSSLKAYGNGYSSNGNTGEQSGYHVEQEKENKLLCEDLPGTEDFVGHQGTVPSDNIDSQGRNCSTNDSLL
The description is as above. The class given is cell-based. As to conditions: minor activity; 78-target panel.

In a further data set the test system is rat aortic rings. As to the kind of experiment: Vasorelaxation: ANP-mediated relaxation of rat aortic rings. As to conditions: conc. response of ANP in the absence (ANP) or presence of 10 μM compound, L-NAME present. The procedure: Male Sprague-Dawley (6-8 weeks old) rats were killed by cervical dislocation. The thoracic aorta was dissected and rings (˜4 mm length) mounted in organ baths containing physiological salt solution (PSS; composition in mM: NaCl 119, KCl 4.7, CaCl2 2.5, MgSO4 1.2, NaHCO3 25, KH2PO4 1.2, and glucose 5.5), maintained at 37° C. and gassed with 5% CO2 in O2. Changes in isometric tension were measured in the tissues under a basal tension of 1 g. After equilibration, vessels were repeatedly contracted with KCl (48 mM) until responses were reproducible. A cumulative concentration-response curve was then constructed to the thromboxane receptor agonist 9,11-dideoxy-11α,9α-epoxymethano-prostaglandin F2α (U46619; 10 nm-1 μM). Arteries were then treated with the nitric oxide synthase (NOS) inhibitor L-NG-nitroarginine methyl ester (300 μM; to block the production of endogenous nitric oxide) and pre-contracted with an EC80 concentration of U46619. Once a stable response was achieved, cumulative concentration-response curves were constructed to ANP (0.001-1 μM) in the absence or presence of Compound 1 or Compound 2 (all 10 μM, incubated for 30 min prior to the administration of ANP).

T3 sequence (P08588 whole entry): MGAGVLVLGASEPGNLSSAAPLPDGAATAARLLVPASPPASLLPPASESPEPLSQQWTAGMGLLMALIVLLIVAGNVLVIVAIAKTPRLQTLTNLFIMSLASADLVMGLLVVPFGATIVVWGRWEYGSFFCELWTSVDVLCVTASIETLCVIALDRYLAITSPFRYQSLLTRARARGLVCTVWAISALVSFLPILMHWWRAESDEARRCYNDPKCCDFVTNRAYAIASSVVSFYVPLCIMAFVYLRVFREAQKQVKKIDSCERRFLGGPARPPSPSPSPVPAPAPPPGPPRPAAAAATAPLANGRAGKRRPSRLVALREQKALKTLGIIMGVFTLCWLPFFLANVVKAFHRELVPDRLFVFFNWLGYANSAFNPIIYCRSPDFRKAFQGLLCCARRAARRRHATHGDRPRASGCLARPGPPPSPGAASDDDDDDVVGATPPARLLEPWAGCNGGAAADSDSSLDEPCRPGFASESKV

As to `O=C(Cn1nccc(Cl)c1=O)c1ccc(Cl)cc1Cl` [Compound 24, 4-chloro-2-(2-(2,4-dichlorophenyl)-2-oxoethyl) pyridazin-3(2H)-one], the EC50 in data set [1] (NPR-A-expressing HEK293 cells, read-out: -LogEC50 (compound) (converted)) was 0.2 µM. In data set [1] (percentage of maximum BNP-mediated cGMP production, read-out: Max Response), the Emax was 37.8%. In addition, the “toxicity in MTT assay relative to corresponding dichloro compounds” value with HeLa cells is “lower toxicity”. The “non-cytotoxic concentration relative to EC50 at the target” value in data set [2] (15 μM versus EC50 of compound 24 at the target) is given as 70-80 fold. In addition, the “cytotoxic effects (cell count, nuclear size, DNA structure, cell membrane permeability, mitochondrial mass, mitochondrial membrane potential, cytochrome c)” value in data set [2] (at concentrations below 15 μM) is “did not show any cytotoxic effects”. For the same compound, the IC50 on dopamine D1-receptor, against β1-adrenergic receptor and at β2-adrenergic receptor was over 6 µM throughout.
As to “ANP: atrial natriuretic peptide, endogenous NPR-A agonist used in vasorelaxation”, the “-LogEC50 (ANP)” value in the data set on rat aortic rings is listed as 8.3.
